Data from patent US20250382631A1, “PROTAC-CID SYSTEMS FOR USE IN MULTIPLEX GENE REGULATION” (William Marsh Rice University, priority 2022, published 2025).

Assays:
[1] = system: endogenous HEK3 locus in HEK293T cells; experiment: Inducible prime editing, His6 Tag insertion (Sanger sequencing, TIDE); assay type: cell-based, human; conditions: high TRE3G-driven PE2 plasmid dose (120 ng per well), 100 nM dTAG-13, 3 days, FIG. 3H
Procedure: Prime editing measurement. HEK293T cells were seeded into 96 well plates (Corning no. 3598). When the cells reach 20% confluency, 265 ng to 290 ng plasmids (See Table 1 for plasmid dosage used in each condition) were firstly mixed with 25 μL DMEM. 0.5 μL Lipofectamine 2000 (Life Technology no. 11661089) was incubated with 25 μL DMEM for 5 min. Next, plasmid solution was mixed with the Lipofectamine 2000 solution for 20 min and added into the cells gently. After 12 h, the supernatants were changed with fresh 10% FBS (Thermo Fisher Scientific no. 10437028) DMEM medium (Thermo Fisher Scientific no. 10569044) supplied with Puromycin (10 μg/mL Thermo Fisher Scientific no. A1113803) and 100 nM dTAG-13 (TOCRIS no. 6605/5) or DMSO (Sigma, no. D8418). 3 days post-induction, the supernatant was removed and supplied with 100 μL lysis buffer (10 mM tris-HCl (pH=7.5), 0.05% SDS, and proteinase K (25 μg/mL, Thermo Fisher Scientific no. 01169965)) followed by 37° C. 1 h, 58° C. 30 min and inactivated at 95° C. for 20 min. […] The insertion efficiency was analyzed online in TIDE (https://tide.nki.nl/) (Brinkman et al., 2018) with the setting (left boundary=100, Decomposition window (115-685 bp), Indel size range (28 bp), P-value threshold=0.001).

[2] = system: Cre-mediated GFP expression in HEK293T cells; experiment: Inducible Cre site-specific DNA recombination, LoxP-STOP-LoxP-GFP reporter; assay type: cell-based, human
Procedure: Fluorescence assay using flow cytometry analysis. Cells were treated with 0.05% Trpsin EDTA (Thermo Fisher Scientific no. 25300054) or TrypLE (Thermo Fisher Scientific no. 12605028) after transfection and centrifuged at 3000 g for 5 min. Supernatant was removed and the cell pellet was resuspended with 200 μL phosphate buffered saline (PBS) without calcium and magnesium (Thermo Fisher Scientific no. 10010023). Cells were transferred into 12×75 mm flow tubes (Global Scientific no. 110410). Cells were analyzed by MA900 flow cytometry (SONY). 405 nm laser (FL6 filter) was used for testing the BFP channel. 488 nm (FL1 filter) was used for testing the EYFP and GFP channel. Automated alignment using Automatic Setup Beads kit (SONY no. LE-B3001) is performed before running samples. In FIGS. 3A, 3B, and 17, experiments were performed under 2% FSC, 17% BSC, 24% FL1. In FIG. 18, experiments were performed under 2% FSC, 17% BSC, 27% FL1. All the other experiments were performed under 2% FSC, 17% BSC, 24% FL1 and 27% FL6. Flow cytometry data was processed and analyzed by FlowJo 10. Events were first gated with forward scatter-Area (FSC-A) and side scatter-Area (SSC-A) to select viable cells and remove the debris and dead cells. Cells were further gated with FSC-A and FSC-Height (FSC-H) for selecting single cells. The mean intensity of the reporter fluorescent protein (BFP and EYFP) in viable and single cell populations were calculated by FlowJo 10 as the mean of FL6-A and FL1-A. When calculating the fold change of relative fluorescence units (RFU), the relative fluorescence units of EYFP was calculated by dividing the mean of fluorescence intensity of EYFP with the mean of BFP fluorescence intensity for normalization as the following formula: […]
Transfection and microscopy. […]

## CC[C@H](C(=O)N1CCCC[C@H]1C(=O)O[C@H](CCc1ccc(OC)c(OC)c1)c1ccccc1OCC(=O)NCCCCCCOc1cccc2c1C(=O)N(C1CCC(=O)NC1=O)C2=O)c1cc(OC)c(OC)c(OC)c1 (stereo partly drawn) [dTAG-13]
[1]
  prime editing efficiency (His6 Tag insertion): more than 20%
[2]; 100 nM dTAG-13 or 1 μM dBRD9, 2 days, FIGS. 3A and 17
  GFP signal, two-layer genetic circuit driving Cre: strong GFP signal
[2]; FIG. 3B
  GFP expression, three-layer circuit (Dre, Rox-STOP-Rox-Cre): robust GFP expression only in the presence of dTAG-13
